Laboratory results from patent US9499550B2 (BRISTOL-MYERS SQUIBB COMPANY, priority 2012, dated 2016).
Where two headings read alike, the source gives them in different places.

How the values were obtained:
[1] = test system: HCV genotype 1a (H77 strain) replicon in HUH-7 cells; assay: HCV replicon luciferase reporter assay, genotype 1a; assay type: cell-based; details: Hepatitis C virus, Huh-7, 72 h, 3 days incubation, read-out: LE_1a (EC50, range)
Outline: (§1)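 Replicon inhibition for both genotypes was measured as Renilla luciferase signal (EnduRen, 7.5 μM final, 2 h) after 3-day, 37° C exposure of replicon-bearing HUH-7 cells in 4% FCS DMEM, 0.5% DMSO. The 1b construct carries S1179I; the 1a H77 construct carries P1496L and S2204I. Twenty-point, 3-fold dilutions were fitted four-parametrically for EC50, and CC50 was taken from multiplexed Cell Titer-Blue.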

[2] = test system: HCV genotype 1b (Con1) replicon in HUH-7 cells; assay: HCV replicon luciferase reporter assay, genotype 1b; assay type: cell-based; details: Hepatitis C virus, Huh-7, 72 h, 3 days incubation, read-out: LE_1b (EC50, range)
Outline: as §1

[3] = HCV genotype 1a replicon luciferase assay, range class
[4] = HCV genotype 1b replicon luciferase assay, range class
[5] = HCV genotype 1a replicon luciferase
[6] = HCV genotype 1b replicon luciferase
[7] = GETYPE1A, HCV genotype 1a replicon luciferase
[8] = GETYPE1B, HCV genotype 1b replicon luciferase

Structure (SMILES)	EC50 [1, 3] [nM]	EC50 [2, 4] [nM]	further results
CCCOc1cc2c(Cl)cccc2c(O[C@@H]2C[C@H]3C(=O)N[C@]4(C(=O)NS(=O)(=O)C5CC5)C[C@H]4/C=C\CC[C@H](C)C[C@@H](C)[C@H](NC(=O)OC4C[C@@H]5C[C@H]5C4)C(=O)N3C2)n1 [Compound 1085, (1S,5S)-bicyclo[3.1.0]hexan-3-yl((2R,6S,7R,9S,13aS,14aR,16aS,Z)-2-((5-chloro-3-propoxyisoquinolin-1-yl)oxy)-14a-((cyclopropylsulfonyl)carbamoyl)-7,9-dimethyl-5,16-dioxo-1,2,3,5,6,7,8,9,10,11,13a,14,14a,15,16,16a-hexadecahydrocyclopropa[e]pyrrolo[1,2-a][1,4]diazacyclopentadecin-6-yl)carbamate]	< 5.46	< 5.46	
COc1ccc2c(O[C@@H]3C[C@H]4C(=O)N[C@]5(C(=O)NS(=O)(=O)C6(C)CC6)C[C@H]5/C=C\CC[C@H](C)C[C@@H](C)[C@H](NC(=O)OCC5(C)CC5)C(=O)N4C3)nc(-c3ccc(F)cc3)cc2c1 [Compound 3084, (1-methylcyclopropyl)methyl ((2R,6S,7R,9S,13aS,14aR,16aS,Z)-2-((3-(4-fluorophenyl)-6-methoxyisoquinolin-1-yl)oxy)-7,9-dimethyl-14a-(((1-methylcyclopropyl)sulfonyl)carbamoyl)-5,16-dioxo-1,2,3,5,6,7,8,9,10,11,13a,14,14a,15,16,16a-hexadecahydrocyclopropa[e]pyrrolo[1,2-a][1,4]diazacyclopentadecin-6-yl)carbamate]	4.82 to 103	< 5.46	
COc1ccc2c(O[C@@H]3C[C@H]4C(=O)N[C@]5(C(=O)NS(=O)(=O)C6(CF)CC6)C[C@H]5/C=C\CC[C@H](C)C[C@@H](C)[C@H](NC(=O)OC(C)(C)C(C)(F)F)C(=O)N4C3)nc(C(F)(F)F)cc2c1 [Compound 1170, 3,3-difluoro-2-methylbutan-2-yl((2R,6S,7R,9S,13aS,14aR,16aS,Z)-14a-(((1-(fluoromethyl)cyclopropyl)sulfonyl)carbamoyl)-2-((6-methoxy-3-(trifluoromethyl)isoquinolin-1-yl)oxy)-7,9-dimethyl-5,16-dioxo-1,2,3,5,6,7,8,9,10,11,13a,14,14a,15,16,16a-hexadecahydrocyclopropa[e]pyrrolo[1,2-a][1,4]diazacyclopentadecin-6-yl)carbamate]	4.82 to 103	4.82 to 103	
C[C@@H]1CC/C=C\[C@@H]2C[C@@]2(C(=O)NS(=O)(=O)C2(CF)CC2)NC(=O)[C@@H]2C[C@@H](Oc3nc4c(c5ccccc35)CCCO4)CN2C(=O)[C@@H](NC(=O)OC(C)(C)C(F)(F)F)[C@H](C)C1 [Compound 6050, 1,1,1-trifluoro-2-methylpropan-2-yl((2R,6S,7R,9R,13aS,14aR,16aS,Z)-2-((2,3-dihydro-1H-pyrano[2,3-c]isoquinolin-6-yl)oxy)-14a-(((1-(fluoromethyl)cyclopropyl)sulfonyl)carbamoyl)-7,9-dimethyl-5,16-dioxo-1,2,3,5,6,7,8,9,10,11,13a,14,14a,15,16,16a-hexadecahydrocyclopropa[e]pyrrolo[1,2-a][1,4]diazacyclopentadecin-6-yl)carbamate]			EC50 [1, 5]: 1.01 to 5 nM; EC50 [2, 6]: 0.1 to 0.5 nM
CC(C)Oc1cc2c(Cl)cccc2c(O[C@@H]2C[C@H]3C(=O)N[C@]4(C(=O)NS(=O)(=O)C5(C)CC5)C[C@H]4/C=C\CC[C@@H](C)C[C@@H](C)[C@H](NC(=O)OC(C)(C)C(C)(F)F)C(=O)N3C2)n1 [Compound 1104, 3,3-difluoro-2-methylbutan-2-yl((2R,6S,7R,9R,13aS,14aR,16aS,Z)-2-((5-chloro-3-isopropoxyisoquinolin-1-yl)oxy)-7,9-dimethyl-14a-(((1-methylcyclopropyl)sulfonyl)carbamoyl)-5,16-dioxo-1,2,3,5,6,7,8,9,10,11,13a,14,14a,15,16,16a-hexadecahydrocyclopropa[e]pyrrolo[1,2-a][1,4]diazacyclopentadecin-6-yl)carbamate]	< 5.46	< 5.46	
CCOc1ccc2c(O[C@@H]3C[C@H]4C(=O)N[C@]5(C(=O)NS(=O)(=O)C6(C)CC6)C[C@H]5/C=C\CC[C@@H](C)C[C@@H](CC)[C@H](NC(=O)OC(C)(C)C)C(=O)N4C3)nccc2c1 [Compound 5373, tert-butyl ((2R,6S,7R,9R,13aS,14aR,16aS,Z)-2-((6-ethoxyisoquinolin-1-yl)oxy)-7-ethyl-9-methyl-14a-(((1-methylcyclopropyl)sulfonyl)carbamoyl)-5,16-dioxo-1,2,3,5,6,7,8,9,10,11,13a,14,14a,15,16,16a-hexadecahydrocyclopropa[e]pyrrolo[1,2-a][1,4]diazacyclopentadecin-6-yl)carbamate]			EC50 [1, 5]: 1.01 to 5 nM; EC50 [2, 6]: 0.51 to 1 nM
COc1ccc2nc(C)c(O[C@@H]3C[C@H]4C(=O)N[C@]5(C(=O)NS(=O)(=O)C6(CF)CC6)C[C@H]5/C=C\CC[C@@H](C)C[C@@H](C)[C@H](NC(=O)OC(C)(C)C(F)(F)F)C(=O)N4C3)nc2c1 [Compound 4108]			EC50 [1, 7]: < 5.46 nM; EC50 [2, 8]: < 5.46 nM
COCC(C)(C)OC(=O)N[C@@H]1C(=O)N2C[C@H](Oc3ncc(OC)c4ccccc34)C[C@H]2C(=O)N[C@]2(C(=O)NS(=O)(=O)C3(CF)CC3)C[C@H]2/C=C\CC[C@H](C)C[C@H]1C [Compound 1049, 1-methoxy-2-methylpropan-2-yl((2R,6S,7R,9S,13aS,14aR,16aS,Z)-14a-(((1-(fluoromethyl)cyclopropyl)sulfonyl)carbamoyl)-2-((4-methoxyisoquinolin-1-yl)oxy)-7,9-dimethyl-5,16-dioxo-1,2,3,5,6,7,8,9,10,11,13a,14,14a,15,16,16a-hexadecahydrocyclopropa[e]pyrrolo[1,2-a][1,4]diazacyclopentadecin-6-yl)carbamate]	4.82 to 103	4.82 to 103	
CC[C@@H]1C[C@H](C)CC/C=C\[C@@H]2C[C@@]2(C(=O)NS(=O)(=O)C2CC2)NC(=O)[C@@H]2C[C@@H](Oc3ncnc4cc(OC)ccc34)CN2C(=O)[C@H]1NC(=O)OC(C)(C)C [Compound 4239, tert-butyl ((2R,6S,7R,9R,13aS,14aR,16aS,Z)-14a-((cyclopropylsulfonyl)carbamoyl)-7-ethyl-2-((7-methoxyquinazolin-4-yl)oxy)-9-methyl-5,16-dioxo-1,2,3,5,6,7,8,9,10,11,13a,14,14a,15,16,16a-hexadecahydrocyclopropa[e]pyrrolo[1,2-a][1,4]diazacyclopentadecin-6-yl)carbamate]			EC50 [1, 5]: < 5.46 nM; EC50 [2, 6]: < 5.46 nM
CC[C@@H]1C[C@H](C)CC/C=C\[C@@H]2C[C@@]2(C(=O)NS(=O)(=O)C2(C)CC2)NC(=O)[C@@H]2C[C@@H](Oc3nc4c(c5cc(OC)c(F)cc35)CCCO4)CN2C(=O)[C@H]1NC(=O)OC(C)(C)C(F)(F)F [Compound 1197]			EC50 [1, 7]: 1.01 to 5 nM; EC50 [2, 8]: 0.51 to 1 nM
COc1ccc2c(O[C@@H]3C[C@H]4C(=O)N[C@]5(C(=O)NS(=O)(=O)C6CC6)C[C@H]5/C=C\CC[C@H](C)C[C@@H](C)[C@H](NC(=O)OC(C)(C)C)C(=O)N4C3)nc(-c3ccc(F)cc3)cc2c1 [Compound 3041, tert-butyl ((2R,6S,7R,9S,13aS,14aR,16aS,Z)-14a-((cyclopropylsulfonyl)carbamoyl)-2-((3-(4-fluorophenyl)-6-methoxyisoquinolin-1-yl)oxy)-7,9-dimethyl-5,16-dioxo-1,2,3,5,6,7,8,9,10,11,13a,14,14a,15,16,16a-hexadecahydrocyclopropa[e]pyrrolo[1,2-a][1,4]diazacyclopentadecin-6-yl)carbamate]	< 5.46	< 5.46	
CC[C@@H]1C[C@H](C)CC/C=C\[C@@H]2C[C@@]2(C(=O)NS(=O)(=O)C2CC2)NC(=O)[C@@H]2C[C@@H](Oc3cc(OC)nc4cc(OC)c(F)cc34)CN2C(=O)[C@H]1NC(=O)OC(C)(C)C(F)(F)F [Compound 1201]			EC50 [1, 7]: 1.01 to 5 nM; EC50 [2, 8]: 1.01 to 5 nM
COCCOc1cc2c(Cl)cccc2c(O[C@@H]2C[C@H]3C(=O)N[C@]4(C(=O)NS(=O)(=O)C5(C)CC5)C[C@H]4/C=C\CC[C@H](C)C[C@@H](C)[C@H](NC(=O)OC(C)(C)C(C)(F)F)C(=O)N3C2)n1 [Compound 1115, 3,3-difluoro-2-methylbutan-2-yl((2R,6S,7R,9S,13aS,14aR,16aS,Z)-2-((5-chloro-3-(2-methoxyethoxyl)isoquinolin-1-yl)oxy)-7,9-dimethyl-14a-(((1-methylcyclopropyl)sulfonyl)carbamoyl)-5,16-dioxo-1,2,3,5,6,7,8,9,10,11,13a,14,14a,15,16,16a-hexadecahydrocyclopropa[e]pyrrolo[1,2-a][1,4]diazacyclopentadecin-6-yl)carbamate]	< 5.46	< 5.46	
CCCOc1cnc(O[C@@H]2C[C@H]3C(=O)N[C@]4(C(=O)NS(=O)(=O)C5CC5)C[C@H]4/C=C\CC[C@@H](C)C[C@@H](C)[C@H](NC(=O)OCC4(C)CC4)C(=O)N3C2)c2ccccc12 [Compound 5097, (1-methylcyclopropyl)methyl ((2R,6S,7R,9R,13aS,14aR,16aS,Z)-14a-((cyclopropylsulfonyl)carbamoyl)-7,9-dimethyl-5,16-dioxo-2-((4-propoxyisoquinolin-1-yl)oxy)-1,2,3,5,6,7,8,9,10,11,13a,14,14a,15,16,16a-hexadecahydrocyclopropa[e]pyrrolo[1,2-a][1,4]diazacyclopentadecin-6-yl)carbamate]			EC50 [1, 5]: < 5.46 nM; EC50 [2, 6]: < 5.46 nM
